Experimental data reported in patent US10751802B1, “Method of producing silver nanoparticles using red sand” (KING SAUD UNIVERSITY, priority 2019, dated 2020).

What was measured:
[1] = system: A. baumannii; test: combination effect of silver nanoparticles with antibiotic discs; format: cell-based, Acinetobacter baumannii; settings: antibiotic disc alone; F 100 μg, FOS 50 μg, TE 30 μg, FEP 30 μg, MXF 5 μg, LEV 5 μg; Mueller-Hinton agar, 24 hours at 37° C.
Method: (§1) Moreover, combination effects were determined by first adjusting the turbidity of the previously mentioned bacterial strains to 0.5 MacFarland standards (10^8 CFU/mL), and swabbing the strains on Mueller-Hinton agar. Antibiotic discs alone were used as controls, respectively. […] To study the combination effect, 30 μl of the exemplary silver nanoparticles were loaded on the antibiotics discs then placed on the swabbed medium. The plates were incubated for 24 hours at 37° C. The diameters of the inhibition zones were measured and reported in millimeters.

[2] = system: P. vulgaris; test: as above; format: cell-based, Proteus vulgaris; settings: antibiotic disc alone; F 100 μg, FOS 50 μg, TE 30 μg, FEP 30 μg, MXF 5 μg, LEV 5 μg; Mueller-Hinton agar, 24 hours at 37° C.
Method: as §1

[3] = system: S. typhimurium; test: as above; format: cell-based, Salmonella typhimurium; settings: antibiotic disc alone; F 100 μg, FOS 50 μg, TE 30 μg, FEP 30 μg, MXF 5 μg, LEV 5 μg; Mueller-Hinton agar, 24 hours at 37° C.
Method: as §1

[4] = system: E. coli; test: as above; format: cell-based, Escherichia coli; settings: antibiotic disc alone; F 100 μg, FOS 50 μg, TE 30 μg, FEP 30 μg, MXF 5 μg, LEV 5 μg; Mueller-Hinton agar, 24 hours at 37° C.
Method: as §1

[5] = system: P. aeruginosa; test: as above; format: cell-based, Pseudomonas aeruginosa; settings: antibiotic disc alone; F 100 μg, FOS 50 μg, TE 30 μg, FEP 30 μg, MXF 5 μg, LEV 5 μg; Mueller-Hinton agar, 24 hours at 37° C.
Method: as §1

[6] = system: S. aureus; test: as above; format: cell-based, Staphylococcus aureus; settings: antibiotic disc alone; RD 5 μg, E 15 μg, TOB 10 μg, TGC 15 μg, MXF 5 μg, LEV 5 μg; Mueller-Hinton agar, 24 hours at 37° C.
Method: as §1

[7] = system: Proteus vulgaris (ATCC 49132); test: agar well diffusion assay, inhibition zone; format: cell-based; settings: standard antibiotic disc AMC (30), control
Method: (§2) Antibacterial activity of the exemplary silver nanoparticles, prepared as described above (except that centrifuging and drying were omitted, i.e., antimicrobial testing was performed without removing the silver nanoparticles from the red sand extract), was evaluated against pathogenic bacterial reference strains of Acinetobacter baumannii (ATCC 19606), Salmonella typhimurium (ATCC 14028), Escherichia coli (ATCC 35218), Pseudomonas aeruginosa (27853 AT), Staphylococcus aureus (25923 AT) and Proteus vulgaris (ATCC 49132) using an agar well diffusion assay. In particular, the antibacterial activity against each strain was determined by measuring the inhibition zone. Standard antibiotic discs, including Gentamycin (CN10 μg), Augmantin (AMC 30 μg), and Ciprofloxacin (CIP 5 μg), were used as controls.

[8] = system: Salmonella typhimurium (ATCC 14028); test: agar well diffusion assay, inhibition zone; format: cell-based; settings: standard antibiotic disc CN (10), control
Method: as §2

[9] = system: Staphylococcus aureus (25923 AT); test: agar well diffusion assay, inhibition zone; format: cell-based; settings: standard antibiotic disc CN (10), control
Method: as §2

[10] = system: Escherichia coli (ATCC 35218); test: agar well diffusion assay, inhibition zone; format: cell-based; settings: standard antibiotic disc CIP (5), control
Method: as §2

[11] = system: Acinetobacter baumannii (ATCC 19606); test: agar well diffusion assay, inhibition zone; format: cell-based; settings: standard antibiotic disc CIP (5), control
Method: as §2

[12] = system: Pseudomonas aeruginosa (27853 AT); test: agar well diffusion assay, inhibition zone; format: cell-based; settings: standard antibiotic disc CIP (5), control
Method: as §2

Row | Compound | C: inhibition zone of the antibiotic alone as a control [1] [mm] | C: inhibition zone of the antibiotic alone as a control [2] [mm] | C: inhibition zone of the antibiotic alone as a control [3] [mm] | C: inhibition zone of the antibiotic alone as a control [4] [mm] | C: inhibition zone of the antibiotic alone as a control [5] [mm] | C: inhibition zone of the antibiotic alone as a control [6] [mm] | other results
1 | O=C1CN(/N=C/c2ccc([N+](=O)[O-])o2)C(=O)N1 [Nitrofurantoin] | 11 | 10 | 23.5 | 21.5 |  |  | 
2 | C[C@H]1COc2c(N3CCN(C)CC3)c(F)cc3c(=O)c(C(=O)O)cn1c23 [Levofloxacin] | 23 | 33 | 30 | 35 | 27 | 27 | 
3 | Augmantin [AMC] |  |  |  |  |  |  | Diameter of inhibition zone, standard antibiotic disc [7]: AMC (30) = 32 mm
4 | C[C@@H]1O[C@@H]1P(=O)(O)O [Fosfomycin] | 10 | 11 | 20.5 | 24 | 27 |  | 
5 | CO[C@H]1/C=C/O[C@@]2(C)Oc3c(C)c(O)c4c(O)c(c(/C=N/N5CCN(C)CC5)c(O)c4c3C2=O)NC(=O)/C(C)=C\C=C\[C@H](C)[C@H](O)[C@@H](C)[C@@H](O)[C@@H](C)[C@H](OC(C)=O)[C@@H]1C [Rifampicin] |  |  |  |  |  | 34.5 | 
6 | CC[C@H]1OC(=O)[C@H](C)[C@@H](O[C@H]2C[C@@](C)(OC)[C@@H](O)[C@H](C)O2)[C@H](C)[C@@H](O[C@@H]2O[C@H](C)C[C@H](N(C)C)[C@H]2O)[C@](C)(O)C[C@@H](C)C(=O)[C@H](C)[C@@H](O)[C@]1(C)O [Erythromycin] |  |  |  |  |  | 32 | 
7 | COc1c(N2C[C@@H]3CCCN[C@@H]3C2)c(F)cc2c(=O)c(C(=O)O)cn(C3CC3)c12 [Moxifloxacin] | 20 | 19. | 30 | 31 | 22.5 | 33 | 
8 | CN(C)[C@@H]1C(O)=C(C(N)=O)C(=O)[C@@]2(O)C(O)=C3C(=O)c4c(O)cccc4[C@@](C)(O)[C@H]3C[C@@H]12 [Tetracycline] | 11.5 | 11. | 18 | 17 | 11.5 |  | 
9 | Gentamycin [CN] |  |  |  |  |  |  | Diameter of inhibition zone, standard antibiotic disc [8]: CN (10) = 24 mm; Diameter of inhibition zone, standard antibiotic disc [9]: CN (10) = 30 mm
10 | NC[C@H]1O[C@H](O[C@H]2[C@H](O)[C@@H](O[C@H]3O[C@H](CO)[C@@H](O)[C@H](N)[C@H]3O)[C@H](N)C[C@@H]2N)[C@H](N)C[C@@H]1O [Tobramycin] |  |  |  |  |  | 26 | 
11 | CO/N=C(\C(=O)N[C@@H]1C(=O)N2C(C(=O)[O-])=C(C[N+]3(C)CCCC3)CS[C@H]12)c1csc(N)n1 [Cefepime] |  |  | 23.5 |  | 11 |  | 
12 | O=C(O)c1cn(C2CC2)c2cc(N3CCNCC3)c(F)cc2c1=O [CIP, Ciprofloxacin] |  |  |  |  |  |  | Diameter of inhibition zone, standard antibiotic disc [10]: CIP (5) = 33 mm; Diameter of inhibition zone, standard antibiotic disc [11]: CIP (5) = 25 mm; Diameter of inhibition zone, standard antibiotic disc [12]: CIP (5) = 31 mm
13 | CN(C)c1cc(NC(=O)CNC(C)(C)C)c(O)c2c1C[C@H]1C[C@H]3[C@H](N(C)C)C(O)=C(C(N)=O)C(=O)[C@@]3(O)C(O)=C1C2=O [Tigecycline] |  |  |  |  |  | 24 | 
